Measured values from patent publication US20260062387A1, “SALT-INDUCIBLE KINASE INHIBITOR COMPOUND AND PHARMACEUTICAL COMPOSITION INCLUDING THE SAME” (MITSUBISHI TANABE PHARMA CORPORATION, priority 2023, published 2026).

What was measured:
Type in all cases: biochemical
GST-tagged SIK1 = GST-tagged SIK1 (Homo sapiens (Human), UniProt P57059); assay: SIK1 inhibition test (ADP-Glo Max Assay); conditions: enzyme 20 nM, AMARA Peptide 200 μM, ATP 1 mM, 2 hours room temperature
In short: (§1)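 ADP formed was detected by luciferase luminescence after a 2 h room-temperature reaction with 1 mM ATP, 5 mM MgCl2 and AMARA peptide at 200 μM (SIK1, SIK2) or 100 μM (SIK3). Final GST-enzyme levels were 20 nM SIK1, 3 nM SIK2 and 100 nM SIK3. IC50 came from 16-point concentration-response data.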

GST-tagged SIK3 = GST-tagged SIK3 (Homo sapiens (Human), UniProt Q9Y2K2); assay: SIK3 inhibition test (ADP-Glo Max Assay); conditions: enzyme 100 nM, AMARA Peptide 100 μM, ATP 1 mM, 2 hours room temperature
GST-tagged SIK3, sequence (Q9Y2K2 whole entry): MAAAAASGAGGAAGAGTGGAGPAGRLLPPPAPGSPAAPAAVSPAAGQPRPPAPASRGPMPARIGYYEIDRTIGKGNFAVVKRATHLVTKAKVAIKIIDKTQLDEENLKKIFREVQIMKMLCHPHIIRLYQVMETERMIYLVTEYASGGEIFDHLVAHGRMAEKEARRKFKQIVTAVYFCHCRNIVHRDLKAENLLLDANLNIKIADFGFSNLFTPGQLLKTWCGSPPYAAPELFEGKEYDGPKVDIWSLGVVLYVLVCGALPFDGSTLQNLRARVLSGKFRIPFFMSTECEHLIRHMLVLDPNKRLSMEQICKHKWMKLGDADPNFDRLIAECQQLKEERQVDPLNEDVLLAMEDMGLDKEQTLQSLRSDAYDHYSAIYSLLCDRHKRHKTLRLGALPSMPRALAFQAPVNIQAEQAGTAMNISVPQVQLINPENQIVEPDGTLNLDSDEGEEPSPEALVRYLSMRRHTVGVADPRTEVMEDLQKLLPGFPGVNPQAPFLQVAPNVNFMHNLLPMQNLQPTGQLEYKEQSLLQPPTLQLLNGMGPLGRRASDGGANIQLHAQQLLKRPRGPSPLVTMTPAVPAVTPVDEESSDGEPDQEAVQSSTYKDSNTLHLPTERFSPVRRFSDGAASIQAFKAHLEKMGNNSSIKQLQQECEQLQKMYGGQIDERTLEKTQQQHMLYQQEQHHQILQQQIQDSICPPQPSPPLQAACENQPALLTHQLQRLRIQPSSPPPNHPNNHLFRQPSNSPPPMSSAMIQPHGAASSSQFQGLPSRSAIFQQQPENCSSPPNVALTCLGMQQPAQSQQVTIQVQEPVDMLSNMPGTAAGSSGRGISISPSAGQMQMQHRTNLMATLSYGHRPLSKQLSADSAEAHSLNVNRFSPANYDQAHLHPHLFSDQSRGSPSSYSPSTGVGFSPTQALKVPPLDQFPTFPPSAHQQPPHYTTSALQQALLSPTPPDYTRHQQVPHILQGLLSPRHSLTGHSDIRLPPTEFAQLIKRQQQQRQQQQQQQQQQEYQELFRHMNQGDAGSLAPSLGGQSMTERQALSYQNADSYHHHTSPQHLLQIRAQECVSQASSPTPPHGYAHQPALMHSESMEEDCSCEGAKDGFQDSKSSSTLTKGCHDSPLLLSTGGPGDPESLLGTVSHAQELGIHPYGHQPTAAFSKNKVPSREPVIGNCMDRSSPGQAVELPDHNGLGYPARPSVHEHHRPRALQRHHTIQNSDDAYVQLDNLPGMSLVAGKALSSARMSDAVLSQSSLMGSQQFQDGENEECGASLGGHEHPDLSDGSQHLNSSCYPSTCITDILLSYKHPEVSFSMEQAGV
In short: as §1

GST-tagged SIK2 = GST-tagged SIK2 (Homo sapiens (Human), UniProt Q9H0K1); assay: SIK2 inhibition test (ADP-Glo Max Assay); conditions: enzyme 3 nM, AMARA Peptide 200 μM, ATP 1 mM, 2 hours room temperature
GST-tagged SIK2, sequence (Q9H0K1 whole entry): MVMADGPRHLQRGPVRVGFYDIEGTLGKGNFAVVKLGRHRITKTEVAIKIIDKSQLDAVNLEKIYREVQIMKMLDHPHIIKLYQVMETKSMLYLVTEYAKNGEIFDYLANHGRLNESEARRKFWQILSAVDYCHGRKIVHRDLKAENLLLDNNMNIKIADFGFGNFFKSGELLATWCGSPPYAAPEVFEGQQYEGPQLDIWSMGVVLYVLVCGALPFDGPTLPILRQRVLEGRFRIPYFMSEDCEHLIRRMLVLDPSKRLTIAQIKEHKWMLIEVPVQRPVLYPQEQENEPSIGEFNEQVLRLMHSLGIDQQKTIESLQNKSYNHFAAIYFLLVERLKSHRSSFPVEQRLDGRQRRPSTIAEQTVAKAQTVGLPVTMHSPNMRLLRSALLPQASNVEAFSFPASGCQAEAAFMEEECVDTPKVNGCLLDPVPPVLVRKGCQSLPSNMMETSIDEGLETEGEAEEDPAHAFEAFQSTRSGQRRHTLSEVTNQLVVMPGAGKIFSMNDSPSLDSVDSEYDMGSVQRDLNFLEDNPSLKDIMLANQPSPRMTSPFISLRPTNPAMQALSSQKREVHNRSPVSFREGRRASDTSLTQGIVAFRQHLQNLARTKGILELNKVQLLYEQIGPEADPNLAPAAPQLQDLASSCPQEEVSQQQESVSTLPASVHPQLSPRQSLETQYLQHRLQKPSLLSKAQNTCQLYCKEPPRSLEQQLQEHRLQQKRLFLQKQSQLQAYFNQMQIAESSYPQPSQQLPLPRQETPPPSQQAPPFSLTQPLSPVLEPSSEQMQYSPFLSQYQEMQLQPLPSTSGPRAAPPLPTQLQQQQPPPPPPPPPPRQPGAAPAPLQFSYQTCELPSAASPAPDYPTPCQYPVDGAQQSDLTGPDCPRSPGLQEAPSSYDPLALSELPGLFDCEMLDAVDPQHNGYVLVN
In short: as §1

GST-tagged SIK1, sequence (P57059 whole entry): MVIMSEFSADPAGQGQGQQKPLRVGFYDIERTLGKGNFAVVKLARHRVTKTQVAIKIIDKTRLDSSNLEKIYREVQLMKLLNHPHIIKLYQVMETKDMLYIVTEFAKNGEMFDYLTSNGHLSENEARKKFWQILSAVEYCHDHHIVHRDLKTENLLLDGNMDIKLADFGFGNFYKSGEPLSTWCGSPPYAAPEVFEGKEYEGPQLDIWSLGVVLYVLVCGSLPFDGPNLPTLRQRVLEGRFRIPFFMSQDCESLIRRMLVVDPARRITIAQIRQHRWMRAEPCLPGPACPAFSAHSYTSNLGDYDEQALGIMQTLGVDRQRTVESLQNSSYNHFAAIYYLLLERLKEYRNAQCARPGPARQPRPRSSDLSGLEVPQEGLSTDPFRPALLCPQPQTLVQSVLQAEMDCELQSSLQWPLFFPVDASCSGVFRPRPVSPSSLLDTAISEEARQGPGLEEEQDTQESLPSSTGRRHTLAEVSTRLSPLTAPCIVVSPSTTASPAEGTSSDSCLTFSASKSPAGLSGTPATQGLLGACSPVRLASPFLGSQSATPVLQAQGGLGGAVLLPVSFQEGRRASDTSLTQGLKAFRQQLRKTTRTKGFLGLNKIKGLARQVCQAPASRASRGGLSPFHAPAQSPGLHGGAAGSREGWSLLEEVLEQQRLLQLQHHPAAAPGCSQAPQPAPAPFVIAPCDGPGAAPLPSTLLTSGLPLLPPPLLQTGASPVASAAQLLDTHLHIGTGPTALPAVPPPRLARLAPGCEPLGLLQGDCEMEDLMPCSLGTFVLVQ

Compound	IC50 (GST-tagged SIK1)	IC50 (GST-tagged SIK3)	IC50 (GST-tagged SIK2)
COc1cc(-c2c3c(OCC(F)(F)F)cc(-c4cnn(C)c4)cc3nn2C)cc(OC(F)F)c1C(=O)N1CC(O)(C(F)(F)F)C1 [Example 30, [2-(difluoromethoxy)-6-methoxy-4-[2-methyl-6-(1-methylpyrazol-4-yl)-4-(2,2,2-trifluoroethoxy)indazol-3-yl]phenyl]-[3-hydroxy-3-(trifluoromethyl)azetidin-1-yl]methanone]	5.1 nM	3.6 nM	6.6 nM
COc1cc(-c2c3c(C(F)F)cc(-c4cnn(CCS(C)(=O)=O)c4)cc3nn2C)cc(OC(F)F)c1C(=O)N1CC(O)(C(F)F)C1 [Example 66, [2-(difluoromethoxy)-4-[4-(difluoromethyl)-2-methyl-6-[1-(2-methylsulfonylethyl)pyrazol-4-yl)indazol-3-yl]-6-methoxyphenyl]-[3-(difluoromethyl)-3-hydroxyazetidin-1-yl]methanone]	11.4 nM	5.7 nM	14.1 nM
COc1cc(-c2c3c(OC(F)F)cc(-c4cnn(C)c4)cc3nn2C)cc(OC(F)F)c1C(N)=O [Example 131, 2-(difluoromethoxy)-4-[4-(difluoromethoxy)-2-methyl-6-(1-methylpyrazol-4-yl)indazol-3-yl]-6-methoxybenzamide]	12.2 nM	16.3 nM	4.5 nM
COc1cc(-c2c3c(OCCCO)cc(-c4cnn(C)c4)cc3nn2C)cc(OC(F)F)c1C(=O)N1CC(O)(C(F)(F)F)C1 [Example 28, [2-(difluoromethoxy)-4-[4-(3-hydroxypropoxy)-2-methyl-6-(1-methylpyrazol-4-yl)indazol-3-yl]-6-methoxyphenyl]-[3-Hydroxy-3-(trifluoromethyl)azetidin-1-yl]methanone]	7.3 nM	13.6 nM	4.7 nM
COc1cc(-c2c3c(C#N)cc(-c4cc(C)ns4)cc3nn2C)cc(OC(F)F)c1C(=O)N[C@@H]1C[C@@H]1F [Example 21, 4-[4-cyano-2-methyl-6-(3-methyl-1,2-thiazol-5-yl)indazol-3-yl]-2-(difluoromethoxy)-N-[(1R,2S)-2-fluorocyclopropyl]-6-methoxybenzamide]	16.9 nM	4 nM	5.6 nM
COc1cc(-c2c3c(OCc4cnc(C)s4)cc(-c4cnn(C)c4)cc3nn2C)cc(OC(F)F)c1C(=O)N1CC(O)(C(F)(F)F)C1 [Example 49, [2-(difluoromethoxy)-6-methoxy-4-[2-methyl-6-(1-methylpyrazol-4-yl)-4-[(2-methyl-1,3-thiazol-5-yl)methoxy]indazol-3-yl]phenyl]-[3-hydroxy-3-(trifluoromethyl)azetidin-1-yl]methanone]	3.9 nM	9.7 nM	11.2 nM
CCn1cc(-c2cc(C#N)c3c(-c4cc(OC)c5c(c4)[C@@H](C)CNC5=O)n(C)nc3c2)cn1 (single isomer, unassigned) [Example 105]	10 nM	8.1 nM	3.4 nM
COc1cc(-c2c3c(C#N)cc(-c4cnn(C)c4)cc3nn2C)cc2c1C(=O)NC[C@@H]2C (single isomer, unassigned) [Example 88]	7.4 nM	5.3 nM	4.5 nM
COc1cc(-c2c3c(C(F)F)cc(-c4cnn(CC(C)(C)O)c4)cc3nn2C)cc(OC(F)F)c1C(=O)N[C@@H]1CC1(F)F [Example 109]	18 nM	2.3 nM	18.1 nM
COc1cc(-c2c3c(C#N)cc(-c4cnn(CCC(C)C)c4)cc3nn2C)cc2c1C(=O)NC[C@@H]2C (single isomer, unassigned) [Example 171]	9.1 nM	4.7 nM	2.3 nM
CCn1cc(-c2cc(C(F)F)c3c(-c4cc(OC)c(C(=O)N[C@@H]5CC5(F)F)c(OC(F)F)c4)n(C)nc3c2)cn1 [Example 116, N-[(1R)-2,2-difluorocyclopropyl]-2-(difluoromethoxy)-4-[4-(difluoromethyl)-6-(1-ethylpyrazol-4-yl)-2-methylindazol-3-yl]-6-methoxybenzamide]	16.1 nM	1.1 nM	5.8 nM
COc1cc(-c2c3c(OCc4ccnnc4)cc(-c4cnn(C)c4)cc3nn2C)cc(OC(F)F)c1C(=O)N1CC(O)(C(F)(F)F)C1 [Example 51, [2-(difluoromethoxy)-6-methoxy-4-[2-methyl-6-(1-methylpyrazol-4-yl)-4-(pyridazin-4-ylmethoxy)indazol-3-yl]phenyl]-[3-hydroxy-3-(trifluoromethyl)azetidin-1-yl]methanone]	8.6 nM	14.1 nM	8.9 nM
COc1cc(-c2c3c(OCc4ccccc4)cc(-c4cnn(C)c4)cc3nn2C)cc(OC(F)F)c1C(=O)N[C@@H]1C[C@@H]1F [Example 6, 2-(difluoromethoxy)-N-[(1R,2S)-2-fluorocyclopropyl]-6-methoxy-4-[2-methyl-6-(1-methylpyrazol-4-yl)-4-phenylmethoxyindazol-3-yl]benzamide]	2.8 nM	8.4 nM	7.1 nM
COc1cc(-c2c3c(C#N)cc(-c4cnn(CC(F)F)c4)cc3nn2C)cc2c1C(=O)NC[C@@H]2C (single isomer, unassigned) [Example 107]	8.3 nM	8 nM	4 nM
COc1cc(-c2cnn(C)c2)cc2nn(C)c(-c3cc(OC(F)F)c4c(c3)[C@@H](C)CNC4=O)c12 (single isomer, unassigned) [Example 166]	11.9 nM	9.6 nM	3.1 nM

Results, then the compound that gave them:

IC50 (GST-tagged SIK1)	IC50 (GST-tagged SIK3)	IC50 (GST-tagged SIK2)	Compound
19.2 nM	4.9 nM	5 nM	COc1cc(-c2c3c(C#N)cc(-c4cnn(CC(=O)N5CC(F)(F)C5)c4)cc3nn2C)cc(OC(F)F)c1C(=O)NCC1(F)CC1 [Example 99, 4-[4-cyano-6-[1-[2-(3,3-difluoroazetidin-1-yl)-2-oxoethyl]pyrazol-4-yl]-2-methylindazol-3-yl]-2-(difluoromethoxy)-N-[(1-fluorocyclopropyl)methyl]-6-methoxybenzamide]
13.6 nM	12.5 nM	11 nM	COc1cc(-c2c3c(C#N)cc(-c4cnn(CC5(O)CCC5)c4)cc3nn2C)cc(OC(F)F)c1C(=O)NCC1(F)CC1 [Example 84, 4-[4-cyano-6-[1-[(1-hydroxycyclobutyl)methyl]pyrazol-4-yl]-2-methylindazol-3-yl]-2-(difluoromethoxy)-N-[(1-fluorocyclopropyl)methyl]-6-methoxybenzamide]
16.2 nM	10 nM	12.2 nM	COc1cc(-c2c3c(C#N)cc(-c4cnn(C)c4)cc3nn2C)cc(OC(F)F)c1C(=O)N1CC(OC(F)F)C1 [Example 9, 3-[3-(difluoromethoxy)-4-[3-(difluoromethoxy)azetidine-1-carbonyl]-5-methoxyphenyl]-2-methyl-6-(1-methylpyrazol-4-yl)indazole-4-carbonitrile]
20 nM	11.8 nM	16.1 nM	COc1cc(-c2c3c(C#N)cc(-c4cnn(CC(C)(C)O)c4)cc3nn2C)cc(OC(F)F)c1C(=O)NCC1(F)CC1 [Example 56]
14.7 nM	7.2 nM	5.3 nM	COc1cc(-c2c3c(C#N)cc(-c4cnn(C)c4)cc3nn2C)cc(OC(F)F)c1C(=O)NC[C@@H]1CC1(F)F (single isomer, unassigned) [Example 46]
17.5 nM	7.3 nM	10.1 nM	COc1cc(-c2c3c(C#N)cc(-c4cnn(C[C@H]5C[C@@H](O)C5)c4)cc3nn2C)cc(OC(F)F)c1C(=O)NCC1(F)CC1 [Example 91, 4-[4-cyano-6-[1-[(cis-3-hydroxycyclobutyl)methyl]pyrazol-4-yl]-2-methylindazol-3-yl]-2-(difluoromethoxy)-N-[(1-fluorocyclopropyl)methyl]-6-methoxybenzamide]
8 nM	1.6 nM	1.1 nM	COc1cc(-c2c3c(C#N)cc(-c4cnn(C[C@H](O)C(F)(F)F)c4)cc3nn2C)cc(OC(F)F)c1C(=O)N[C@@H]1CC1(F)F [Example 124, 4-[4-cyano-2-methyl-6-[1-[(2S)-3,3,3-trifluoro-2-hydroxypropyl]pyrazol-4-yl]indazol-3-yl]-N-[(1R)-2,2-difluorocyclopropyl]-2-(difluoromethoxy)-6-methoxybenzamide]
4.4 nM	0.6 nM	1.7 nM	COc1cc(-c2c3c(C#N)cc(-c4cnn(CCC5(O)CCC5)c4)cc3nn2C)cc(OC(F)F)c1C(=O)N[C@@H]1CC1(F)F [Example 123, 4-[4-cyano-6-[1-[2-(1-hydroxycyclobutyl)ethyl]pyrazol-4-yl]-2-methylindazol-3-yl]-N-[(1R)-2,2-difluorocyclopropyl]-2-(difluoromethoxy)-6-methoxybenzamide]
13.8 nM	6.3 nM	7.3 nM	COc1cc(-c2c3c(C#N)cc(-c4cnn(C)c4)cc3nn2C)cc(OC(F)F)c1C(=O)NCC1CC1(F)F (stereo not drawn) [Example 10]
6.2 nM	1.7 nM	1.7 nM	COc1cc(-c2c3c(C#N)cc(-c4cnn(CCC(C)(C)O)c4)cc3nn2C)cc(OC(F)F)c1C(=O)N[C@@H]1CC1(F)F [Example 111, 4-[4-cyano-6-[1-(3-hydroxy-3-methylbutyl)pyrazo]-4-yl]-2-methylindazol-3-yl]-N-[(1R)-2,2-difluoro[cyclopropyl]-2-(difluoromethoxy)-6-methoxybenzamide]
16.9 nM	6.6 nM	7.2 nM	COc1cc(-c2c3c(C#N)cc(-c4cnn(CC5CC5)c4)cc3nn2C)cc(OC(F)F)c1C(N)=O [Example 138, 4-[4-cyano-6-[1-(cyclopropylmethyl)pyrazol-4-yl]-2-methylindazol-3-yl]-2-(difluoromethoxy)-6-methoxybenzamide]
